Legend:
[1] = tested on: Bacillus subtilis PCI 219; assay: In vitro antimicrobial activity, serial two-fold agar dilution; format: cell-based; settings: nutrient agar medium
Procedure: (§1) The antibacterial activity of BBM-1644 was determined by the serial two-fold agar dilution method. Nutrient agar medium was used for gram-positive and gram-negative bacteria; nutrient agar medium containing 4% glycerol for acid-fast bacteria and Sabaouraud agar medium for fungi. The activity was expressed as minimum inhibitory concentration (MIC) in the agar medium and the results are shown in Table 6 along with those of neocarzinostatin.

[2] = tested on: Candida albicans IAM 4888; assay: as above; format: cell-based; settings: Sabouraud agar medium
Procedure: as §1

[3] = tested on: Escherichia coli NIHJ; assay: as above; format: cell-based; settings: nutrient agar medium
Procedure: as §1

[4] = tested on: Klebsiella pneumoniae D-11; assay: as above; format: cell-based; settings: nutrient agar medium
Procedure: as §1

[5] = tested on: Micrococcus flavus D12; assay: as above; format: cell-based; settings: nutrient agar medium
Procedure: as §1

[6] = tested on: Micrococcus luteus PCI 1001; assay: as above; format: cell-based; settings: nutrient agar medium
Procedure: as §1

[7] = tested on: Mycobacterium phlei D88; assay: as above; format: cell-based; settings: nutrient agar medium containing 4% glycerol
Procedure: as §1

[8] = tested on: Mycobacterium smegmatis 607 D87; assay: as above; format: cell-based; settings: nutrient agar medium containing 4% glycerol
Procedure: as §1

[9] = tested on: Proteus vulgaris A9436; assay: as above; format: cell-based; settings: nutrient agar medium
Procedure: as §1

[10] = tested on: Pseudomonas aeruginosa A9930; assay: as above; format: cell-based; settings: nutrient agar medium
Procedure: as §1

[11] = tested on: Staphylococcus aureus FDA 209P; assay: as above; format: cell-based; settings: nutrient agar medium
Procedure: as §1

[12] = tested on: Staphylococcus aureus Smith; assay: as above; format: cell-based; settings: nutrient agar medium
Procedure: as §1

[13] = tested on: Streptococcus pyogenes A20201; assay: as above; format: cell-based; settings: nutrient agar medium
Procedure: as §1

[14] = tested on: lysogenic bacterium; assay: Induction of prophage in lysogenic bacterium (ILB); format: cell-based; settings: significant activity: T/C of >3.0
Procedure: The ability of BBM-1644 to induce prophage in lysogenic bacterium (ILB) was determined by the method of Lein et. al. (Nature 196: 783-784, 1962) using neocarzinostatin as a reference compound. The plaque count was made on agar plates containing test material (T) and control (C). A T/C ratio of the plaque counts of greater than 3 was considered significant and the ILB activity was expressed by the minimum inducing concentration of the test compound.

[15] = tested on: lymphocytic leukemia P388; assay: Antitumor activity in mice against lymphocytic leukemia P388 (Table 8); format: in vivo, mice (BDF1 strain); settings: ip, significant ≥125%
Procedure: The antitumor activity of BBM-1644 was determined in mice (BDF1 strain) against lymphocytic leukemia P388. Each mouse was inoculated intraperitoneally with 3×10^5 cells of the tumor. Graded doses of the antibiotic were administered to mice intraperitoneally 24 hours after tumor implantation. The treatments were given once a day on days 1, 4 and 7 (q3d ×3 schedule) or 9 consecutive days (qd 1→9 schedule).

[16] = tested on: P388 leukemia; assay: Effect on P388 leukemia in mice, second test (Table 9); format: in vivo, CDF1 female mice; settings: D.1,4&7; for Survivors Day 5: Tox <4/6 alive; for MST % T/C: ≥125 significant
Excerpt: Antitumor activity of BBM-1644 was also indicated by a second test against P388 leukemia in mice, the results of which are shown below in Table 9. Details of the methods used in this test have been described in Cancer Chemother. Rep. 3: 1-87 (Part 3), 1972.
10^6 ascites cells, ip (plus titration)
Host: CDF1 .female. mice.
Tox: <4/6 mice alive on Day 5.
MST = median survival time.
Effect: % T/C = (MST treated/MST control) × 100.
Criteria: % T/C ≥ 125 considered significant antitumor

Substance: Neocarzinostatin
- MIC [1]: 3.1 µg/mL
- MIC [2]: > 100 µg/mL
- MIC [3]: > 100 µg/mL
- MIC [4]: > 100 µg/mL
- MIC [5]: 1.6 µg/mL
- MIC [6]: 1.6 µg/mL
- MIC [7]: 12.5 µg/mL
- MIC [8]: 50 µg/mL
- MIC [9]: > 100 µg/mL
- MIC [10]: > 100 µg/mL
- MIC [11]: 1.6 µg/mL
- MIC [12]: 0.8 µg/mL
- MIC [13]: 3.1 µg/mL
- ILB activity (T/C) ([14]; 0.1 mcg/ml): 0.7
- ILB activity (T/C) ([14]; 1 mcg/ml): 10.8
- ILB activity (T/C) ([14]; 10 mcg/ml): 20.4
- ILB activity (T/C) ([14]; 100 mcg/ml): 28.6
- T/C (%) in MST ([15]; 0.01 mg/kg/day, gd 1→9): 113%
- T/C (%) in MST ([15]; 0.03 mg/kg/day, gd 1→9): 125%
- T/C (%) in MST ([15]; 0.03 mg/kg/day, q3d × 3): 113%
- T/C (%) in MST ([15]; 0.1 mg/kg/day, gd 1→9): 138%
- T/C (%) in MST ([15]; 0.1 mg/kg/day, q3d × 3): 125%
- T/C (%) in MST ([15]; 0.3 mg/kg/day, gd 1→9): 163%
- T/C (%) in MST ([15]; 0.3 mg/kg/day, q3d × 3): 150%
- T/C (%) in MST ([15]; 1 mg/kg/day, q3d × 3): 163%
- AWC d.6 ([16]; 0.05 mg/kg/inj IP): -1.7 gm
- MST ([16]; 0.05 mg/kg/inj IP): 12.0 days
- Survivors Day 5 ([16]; 0.05 mg/kg/inj IP): 6/6
- MST % T/C ([16]; 0.05 mg/kg/inj IP): 133%
- AWC d.6 ([16]; 0.1 mg/kg/inj IP): -1.2 gm
- MST ([16]; 0.1 mg/kg/inj IP): 13.5 days
- Survivors Day 5 ([16]; 0.1 mg/kg/inj IP): 6/6
- MST % T/C ([16]; 0.1 mg/kg/inj IP): 150%
- AWC d.6 ([16]; 0.2 mg/kg/inj IP): -2.5 gm
- MST ([16]; 0.2 mg/kg/inj IP): 15.0 days
- Survivors Day 5 ([16]; 0.2 mg/kg/inj IP): 6/6
- MST % T/C ([16]; 0.2 mg/kg/inj IP): 167%
- AWC d.6 ([16]; 0.4 mg/kg/inj IP): -3.2 gm
- MST ([16]; 0.4 mg/kg/inj IP): 15.5 days
- Survivors Day 5 ([16]; 0.4 mg/kg/inj IP): 6/6
- MST % T/C ([16]; 0.4 mg/kg/inj IP): 172%
- AWC d.6 ([16]; 0.8 mg/kg/inj IP): -4.3 gm
- MST ([16]; 0.8 mg/kg/inj IP): 10.5 days
- Survivors Day 5 ([16]; 0.8 mg/kg/inj IP): 6/6
- MST % T/C ([16]; 0.8 mg/kg/inj IP): 117%
- AWC d.6 ([16]; 1.6 mg/kg/inj IP): -4.8 gm
- MST ([16]; 1.6 mg/kg/inj IP): 8.0 days
- Survivors Day 5 ([16]; 1.6 mg/kg/inj IP): 6/6
- MST % T/C ([16]; 1.6 mg/kg/inj IP): 89%
